{"source": "patent US11135188B2", "about": "“Method and composition to improve absorption of therapeutic agents” (Bayer HealthCare LLC, priority 2009, dated 2021)", "experiment": "Compatibility: degradation products of aspirin/carbonate blends by HPLC", "type": "physicochemical", "method": "The degradation products of various combinations of aspirin and various carbonates were determined for different combinations of aspirin and different grades and sources of carbonates to evaluate the compatibility and stability. Milling for about fifteen minutes appeared to slightly induce the production of free salicylic acid (FSA), but not to a significant extent. […] The results are shown in Table 3 (all blend percentages are weight percentages obtained using High Performance Liquid Chromatography (HPLC))", "data": [{"smiles": "CC(=O)Oc1ccccc1C(=O)O", "note": "[100% Aspirin-Milled 15 min, Aspirin]", "values": [{"measurement": "Acetyl Salicylic Salicylic Acid ASSA", "value": 0.00, "unit": "%"}, {"measurement": "FSA (free salicylic acid)", "value": 0.00, "unit": "%"}]}]}
